Measured values from patent US20230295197A1, “STAT5 and STAT6 Degraders and Uses Thereof” (REGENTS OF THE UNIVERSITY OF MICHICAN, priority 2022, published 2023).
Like-named read-outs stand apart in the source and are kept apart here.

Tested on: STAT5
Assay: Immunoblotting (Western blot) analysis of STAT5 degradation efficiency of degraders in treated cells
Assay type: cell-based
Experimental: Evaluation of the degradation efficiency of degraders may be accomplished by immunoblotting analysis. The representative general protocol is the following:
Cells are maintained in the appropriate culture medium with 10% FBS at 37° C. and an atmosphere of 5% CO2. Cell lines are used within three months of thawing fresh vials. Cells are lysed 1× Cell Lysis Buffer (Cell Signaling Technology, #9803), resolved by SDS-PAGE NuPAGE gel (Thermo Fisher Scientific), and transferred to a PVDF membrane (Millipore). Membranes are blocked using Odyssey TBS Blocker Buffer (LI-COR). IRDye 680RD and 800CW Dye-labeled secondary antibodies (LI-COR) are used. The washed membranes are scanned using Odyssey CLx imager (LI-COR). The intensity of Western blot signaling is quantitated using the Odyssey software. Primary antibodies used are: STAT5 Rabbit mAb (Cell Signaling Technology, #94205), STAT6 Rabbit mAb (Cell Signaling Technology, #5397) and GAPDH mouse monoclonal antibody (Santa Cruz Biotechnology, sc-47724).
To evaluate the degradation efficiency of degraders, immunoblotting analysis was performed. The general protocol is the following.
About 1 million cells for each data point were treated with compounds at indicated concentrations and durations. Untreated and treated cells in cell culture medium were transferred into tubes, followed by centrifugation at 3,000 rpm and 4° C. for 6 min Supernatants were removed from tubes and radioimmunoprecipitation assay (RIPA) lysis buffer supplemented with 1% protease inhibitor cocktail (Fisher Scientific cat. PI87786) and phosphatase inhibitor (Roche cat. 04906837001) were added to tubes containing the remaining cell pellets. The tubes were then left on ice for 30 min and placed in a −80° C. freezer. Subsequently they were thawed in 37° C. water, then centrifuged at 14,000 rpm for 15 min and the cell lysates transferred to new tubes. The concentration of total proteins in each tube was calculated using the Pierce BCA protein Assay kit (cat. 23225). Based on the calculated protein concentration, cell lysates containing approximately the same amount of proteins were transferred to new tubes, then distilled water and 4× Protein Sample Loading Buffer for Western Blots (LI-COR cat. 928-40004) supplemented with 20% of mercaptoethanol (Sigma Aldrich cat. M6250) were added on ice. The cell lysates were then reduced and denatured at 95° C. for 5 min. From the tubes containing cell lysates an equal amount of protein samples (20-40 μg) was loaded into precast 8%, 10%, 4%-12%, or 4%-20% Tris-glycine gels (Novex) filled with Tris-glycine SDS running buffer. After the proteins were resolved, they were transferred onto Immobile-FL PVDF Membrane (Millipore Sigma cat. IPFL00010), using Mini Trans-Blot Electrophoretic Transfer Cell (Bio-Rad 1703930). The membranes were blocked with Intercept Blocking Buffer (LI-COR cat. 927-70001) in LI-COR Western Blot boxes for 1 h at rt. The membranes were washed with 1× Tris-buffered saline-Tween-20 (TBST, 1× solution was made from 20×TBST solution, ThermoFisher Scientific cat. 28360) for 5 min 4 times. The membranes were incubated overnight at 4° C. in Intercept Blocking Buffer supplemented with primary antibodies (normally antibody:buffer 1:1000) and Tween-20. The membranes were washed with TBST for 5 min 4 times and were incubated with Intercept Blocking Buffer supplemented with IRDye 800CE Secondary Antibodies, IRDye 680RD Secondary Antibodies (LI-COR biosciences), Tween-20, and 10% SDS solution, for 1 h at rt. The membranes were then washed with TBST for 5 min 4 times and rinsed with deionized water before drying and scanning with Odyssey Dlx Amazing System (LI-COR). The immunoblots were finally quantified by the software.

[1] = MOLM-16 cells, numeric bound, read-out: DC50 S5 MOLM-16
[2] = SKNO1 cells, read-out: DC50 S5 SKNO1
[3] = KU-812 cells, read-out: DC50 S5 KU-812

| SMILES | DC50 [1] [µM] | DC50 [2] [µM] | DC50 [3] [µM] |
| --- | --- | --- | --- |
| CC(C)(C)[C@H](NC(=O)c1cc2cc(C(F)(F)P(=O)(O)O)ccc2s1)C(=O)N1CCC[C@H]1C(=O)N(CC(=O)NCCCCC#Cc1cccc2c1CN(C1CCC(=O)NC1=O)C2=O)c1ccc(F)cc1 (stereo partly drawn) [Compound 640, ((2-(((2S)-1-((2S)-2-((2-((6-(2-(2,6-dioxopiperidin-3-yl)-1-oxoisoindolin-4-yl)hex-5-yn-1-yl)amino)-2-oxoethyl)(4-fluorophenyl)carbamoyl)pyrrolidin-1-yl)-3,3-dimethyl-1-oxobutan-2-yl)carbamoyl)benzo[b]thiophen-5-yl)difluoromethyl)phosphonic acid] | > 0.3 |  |  |
| CC(C)(C)[C@H](NC(=O)c1cc2cc(C(F)(F)P(=O)(O)O)ccc2s1)C(=O)N1C[C@@H](OCc2ccccc2)C[C@H]1C(=O)N(CCC(=O)NCCC#Cc1cccc2c1CN(C1CCC(=O)NC1=O)C2=O)c1ccc(Br)cc1 (stereo partly drawn) [Compound 622, ((2-(((2S)-1-((2S,4S)-4-(benzyloxy)-2-((4-bromophenyl)(3-((4-(2-(2,6-dioxopiperidin-3-yl)-1-oxoisoindolin-4-yl)but-3-yn-1-yl)amino)-3-oxopropyl)carbamoyl)pyrrolidin-1-yl)-3,3-dimethyl-1-oxobutan-2-yl)carbamoyl)benzo[b]thiophen-5-yl)difluoromethyl)phosphonic acid] | > 0.3 |  |  |
| CC(C)(C)[C@H](NC(=O)c1cc2cc(C(F)(F)P(=O)(O)O)ccc2s1)C(=O)N1CCC[C@H]1C(=O)N(CCC(=O)NCCCCC#Cc1cccc2c1CN(C1CCC(=O)NC1=O)C2=O)c1ccc(Cl)c(F)c1 (stereo partly drawn) [Compound 639, ((2-(((2S)-1-((2S)-2-((4-chloro-3-fluorophenyl)(3-((6-(2-(2,6-dioxopiperidin-3-yl)-1-oxoisoindolin-4-yl)hex-5-yn-1-yl)amino)-3-oxopropyl)carbamoyl)pyrrolidin-1-yl)-3,3-dimethyl-1-oxobutan-2-yl)carbamoyl)benzo[b]thiophen-5-yl)difluoromethyl)phosphonic acid] | > 0.3 | > 10 |  |
| CCN1CC[C@H]2CC[C@@H](C(=O)N(CCC(=O)NCC#Cc3cccc4c3CN(C3CCC(=O)NC3=O)C4=O)c3ccc(Br)cc3)N2C(=O)[C@@H](NC(=O)c2cc3cc(C(F)(F)P(=O)(O)O)ccc3s2)C1 (stereo partly drawn) [Compound 625, ((2-(((5S,8S,10aR)-8-((4-bromophenyl)(3-((3-(2-(2,6-dioxopiperidin-3-yl)-1-oxoisoindolin-4-yl)prop-2-yn-1-yl)amino)-3-oxopropyl)carbamoyl)-3-ethyl-6-oxodecahydropyrrolo[1,2-a][1,5]diazocin-5-yl)carbamoyl)benzo[b]thiophen-5-yl)difluoromethyl)phosphonic acid] | > 0.3 |  |  |
| CN(CCCC#Cc1cccc2c1CN(C1CCC(=O)NC1=O)C2=O)C(=O)CCN(C(=O)[C@@H]1CCCN1C(=O)[C@@H](NC(=O)c1cc2cc(C(F)(F)P(=O)(O)O)ccc2s1)C(C)(C)C)c1ccc2scnc2c1 (stereo partly drawn) [Compound 684, ((2-(((2S)-1-((2S)-2-(benzo[d]thiazol-5-yl(3-((5-(2-(2,6-dioxopiperidin-3-yl)-1-oxoisoindolin-4-yl)pent-4-yn-1-yl)(methyl)amino)-3-oxopropyl)carbamoyl)pyrrolidin-1-yl)-3,3-dimethyl-1-oxobutan-2-yl)carbamoyl)benzo[b]thiophen-5-yl)difluoromethyl)phosphonic acid] |  | 0.1 to 1 | 0.1 to 1 |

Continued, values first:

| DC50 [1] [µM] | DC50 [2] [µM] | DC50 [3] [µM] | SMILES |
| --- | --- | --- | --- |
| > 0.3 | > 10 |  | CC(C)(C)[C@H](NC(=O)c1cc2cc(C(F)(F)P(=O)(O)O)ccc2s1)C(=O)N1CCC[C@H]1C(=O)N(CCC(=O)NCCCC#Cc1cccc2c1CN(C1CCC(=O)NC1=O)C2=O)c1ccc(C2CCOCC2)cc1 (stereo partly drawn) [Compound 651, ((2-(((2S)-1-((2S)-2-((3-((5-(2-(2,6-dioxopiperidin-3-yl)-1-oxoisoindolin-4-yl)pent-4-yn-1-yl)amino)-3-oxopropyl)(4-(tetrahydro-2H-pyran-4-yl)phenyl)carbamoyl)pyrrolidin-1-yl)-3,3-dimethyl-1-oxobutan-2-yl)carbamoyl)benzo[b]thiophen-5-yl)difluoromethyl)phosphonic acid] |
|  | 0.1 to 1 | 0.1 to 1 | CN(CCCC#Cc1cccc2c1CN(C1CCC(=O)NC1=O)C2=O)C(=O)CCN(C(=O)[C@@H]1CCCN1C(=O)[C@H](CCc1ccccc1)NC(=O)c1cc2cc(C(F)(F)P(=O)(O)O)ccc2s1)c1ccc(-c2nccs2)cc1 (stereo partly drawn) [Compound 682, ((2-(((2S)-1-((2S)-2-((3-((5-(2-(2,6-dioxopiperidin-3-yl)-1-oxoisoindolin-4-yl)pent-4-yn-1-yl)(methyl)amino)-3-oxopropyl)(4-(thiazol-2-yl)phenyl)carbamoyl)pyrrolidin-1-yl)-1-oxo-4-phenylbutan-2-yl)carbamoyl)benzo[b]thiophen-5-yl)difluoromethyl)phosphonic acid] |
| > 0.3 |  |  | CC(C)(C)[C@H](NC(=O)c1cc2cc(C(F)(F)P(=O)(O)O)ccc2s1)C(=O)N1C[C@H](OCc2ccccc2)C[C@H]1C(=O)N(CCC(=O)NCCCCC#Cc1cccc2c1CN(C1CCC(=O)NC1=O)C2=O)c1ccc(Br)cc1 (stereo partly drawn) [Compound 619, ((2-(((2S)-1-((2S,4R)-4-(benzyloxy)-2-((4-bromophenyl)(3-((6-(2-(2,6-dioxopiperidin-3-yl)-1-oxoisoindolin-4-yl)hex-5-yn-1-yl)amino)-3-oxopropyl)carbamoyl)pyrrolidin-1-yl)-3,3-dimethyl-1-oxobutan-2-yl)carbamoyl)benzo[b]thiophen-5-yl)difluoromethyl)phosphonic acid] |
| > 0.3 |  |  | CCN1CC[C@H]2CC[C@@H](C(=O)N(CCC(=O)NCCCC#Cc3cccc4c3CN(C3CCC(=O)NC3=O)C4=O)c3ccc(Br)cc3)N2C(=O)[C@@H](NC(=O)c2cc3cc(C(F)(F)P(=O)(O)O)ccc3s2)C1 (stereo partly drawn) [Compound 627, ((2-(((5S,8S,10aR)-8-((4-bromophenyl)(3-((5-(2-(2,6-dioxopiperidin-3-yl)-1-oxoisoindolin-4-yl)pent-4-yn-1-yl)amino)-3-oxopropyl)carbamoyl)-3-ethyl-6-oxodecahydropyrrolo[1,2-a][1,5]diazocin-5-yl)carbamoyl)benzo[b]thiophen-5-yl)difluoromethyl)phosphonic acid] |
| > 0.3 |  |  | CC(C)(C)[C@H](NC(=O)c1cc2cc(C(F)(F)P(=O)(O)O)ccc2s1)C(=O)N1C[C@H](OCc2ccccc2)C[C@H]1C(=O)N(CCC(=O)N1CCC(C#Cc2cccc3c2CN(C2CCC(=O)NC2=O)C3=O)CC1)c1ccc(Br)cc1 (stereo partly drawn) [Compound 621, ((2-(((2S)-1-((2S,4R)-4-(benzyloxy)-2-((4-bromophenyl)(3-(4-((2-(2,6-dioxopiperidin-3-yl)-1-oxoisoindolin-4-yl)ethynyl)piperidin-1-yl)-3-oxopropyl)carbamoyl)pyrrolidin-1-yl)-3,3-dimethyl-1-oxobutan-2-yl)carbamoyl)benzo[b]thiophen-5-yl)difluoromethyl)phosphonic acid] |
| > 0.3 |  |  | CC(C)(C)[C@H](NC(=O)c1cc2cc(C(F)(F)P(=O)(O)O)ccc2s1)C(=O)N1C[C@@H](OCc2ccccc2)C[C@H]1C(=O)N(CCC(=O)NCCCCC#Cc1cccc2c1CN(C1CCC(=O)NC1=O)C2=O)c1ccc(Br)cc1 (stereo partly drawn) [Compound 624, ((2-(((2S)-1-((2S,4S)-4-(benzyloxy)-2-((4-bromophenyl)(3-((6-(2-(2,6-dioxopiperidin-3-yl)-1-oxoisoindolin-4-yl)hex-5-yn-1-yl)amino)-3-oxopropyl)carbamoyl)pyrrolidin-1-yl)-3,3-dimethyl-1-oxobutan-2-yl)carbamoyl)benzo[b]thiophen-5-yl)difluoromethyl)phosphonic acid] |
